Measured values: ChEMBL document CHEMBL1143568, “A new class of selective myocardial calcium channel modulators. 2. Role of the acetal chain in oxadiazol-3-one derivatives” (J Med Chem, 2005)

Assays:
Cavia porcellus [1] = species: Cavia porcellus; experiment: Negative inotropic activity as decrease in the developed tension in isolated guinea pig left artium at 5x10E-5 M (n=4-6)
Cavia porcellus [2] = species: Cavia porcellus; experiment: Vasorelaxant activity determined by percentage inhibition of calcium-induced contraction on K+ depolarized guinea pig aortic strip at 5x10E-5 M
Cavia porcellus [3] = species: Cavia porcellus; experiment: Negative inotropic potency as decrease in the developed tension in isolated guinea pig left artium
Cavia porcellus [4] = species: Cavia porcellus; experiment: Negative chronotropic activity was determined as percent decrease in the artial rate in spontaneously beating guinea pig artium at 5x10E-5 M (n=6-8)
Cavia porcellus [5] = species: Cavia porcellus; experiment: Negative inotropic activity as decrease in the developed tension in isolated guinea pig left artium at 10E-5 M (n=4-6)
Cavia porcellus [6] = species: Cavia porcellus; experiment: Negative chronotropic activity was determined as percent decrease in the artial rate in spontaneously beating guinea pig artium at 10E-5 M (n=6-8)
Cavia porcellus [7] = species: Cavia porcellus; experiment: Negative inotropic activity as decrease in the developed tension in isolated guinea pig left artium 10E-6 M (n=4-6)
Cavia porcellus [8] = species: Cavia porcellus; experiment: Negative inotropic activity as decrease in the developed tension in isolated guinea pig left artium at 5x10E-6 M (n=4-6)
Cavia porcellus [9] = species: Cavia porcellus; experiment: Compound was tested for percent change in maximal rate of the rise in left ventricular pressure in isolated guinea pig atrium
Cavia porcellus [10] = species: Cavia porcellus; experiment: Negative inotropic potency as maximal rate of the rise in left ventricular pressure in isolated guinea pig atrium; settings: Cardiac atrium
Cavia porcellus [11] = species: Cavia porcellus; experiment: Compound was tested for percent change in atrioventricular conduction time in isolated guinea pig atrium
Cavia porcellus [12] = species: Cavia porcellus; experiment: Compound was tested for percent change in heart rate in isolated guinea pig atrium
Cavia porcellus [13] = species: Cavia porcellus; experiment: Selectivity ratio against negative inotropic potency on left atrium to that of negative inotropic potency on left ventricular papillary muscle in guinea pig
Cavia porcellus [14] = species: Cavia porcellus; experiment: Negative inotropic potency is determined by decrease in the developed tension on isolated left ventricular papillary muscle (n=5-7); settings: Muscle tissue
Cavia porcellus [15] = species: Cavia porcellus; experiment: Negative inotropic potency as coronary perfusion pressure in isolated guinea pig atrium; settings: Cardiac atrium
Cavia porcellus [16] = species: Cavia porcellus; experiment: Compound was tested for percent change in coronary perfusion pressure in isolated guinea pig atrium
Cavia porcellus [17] = species: Cavia porcellus; experiment: Negative inotropic activity as decrease in the developed tension in isolated guinea pig left artium at 10E-5 M (n=4-6); remark: listed apart in the source

| SMILES | Decrease (Cavia porcellus [1]) [%] | Decrease (Cavia porcellus [2]) [%] | EC50 (Cavia porcellus [3]) [nM] | Decrease (Cavia porcellus [4]) [%] | other results |
| --- | --- | --- | --- | --- | --- |
| CCCCCCCCCOC1(c2ccc(Cl)cc2)SC=C(C)n2c1noc2=O (stereo unspecified) | 73 | 4 | 790 | 11 | – |
| CC1=CSC(OCC(C)C)(c2ccc(Br)cc2)c2noc(=O)n21 (stereo unspecified) | – | 6 | 310 | 11 | Decrease (Cavia porcellus [5]): 79% |
| CCCCCCCCCCCCO[C@@]1(c2ccc(Br)cc2)SC=C(C)n2c1noc2=O | – | 3 | 130 | 16 | Decrease (Cavia porcellus [5]): 59% |
| CC1=CSC(OCc2ccccc2)(c2ccc(Br)cc2)c2noc(=O)n21 (stereo unspecified) | 63 | 2 | 590 | 4 | – |
| CCCCCCCCCCCCCCCCCCOC1(c2ccc(Cl)cc2)SC=C(C)n2c1noc2=O (stereo unspecified) | 39 | 2 | – | – | Decrease (Cavia porcellus [6]): 15% |
| CCO[C@@]1(c2ccc(Cl)cc2)SC=C(C)n2c1noc2=O | 53 | 28 | 270 | 16 | – |
| C=CCOC1(c2ccc(Cl)cc2)SC=C(C)n2c1noc2=O (stereo unspecified) | 84 | 21 | 370 | 13 | – |
| CCCCCCCC/C=C\CCCCCCCCO[C@@]1(c2ccc(Br)cc2)SC=C(C)n2c1noc2=O | 84 | 2 | 1260 | 9 | – |
| CCCCCCOC1(c2ccc(Br)cc2)SC=C(C)n2c1noc2=O (stereo unspecified) | 81 | 2 | 830 | 9 | – |
| CC/C=C\COC1(c2ccc(Cl)cc2)SC=C(C)n2c1noc2=O (stereo unspecified) | 67 | 10 | 1310 | 5 | – |
| CC1=CSC(OCc2ccccc2)(c2ccc(Cl)cc2)c2noc(=O)n21 (stereo unspecified) | 63 | 4 | 740 | 5 | – |
| CC1=CS[C@@](O)(c2ccc(Br)cc2)c2noc(=O)n21 | 97 | 12 | 320 | 18 | – |
| COC1(c2ccc(Br)cc2)SC=C(C)n2c1noc2=O (stereo unspecified) | – | 13 | – | – | Decrease (Cavia porcellus [6]): 9%; Decrease (Cavia porcellus [7]): 38% |
| CC1=CS[C@@](OC(C)C)(c2ccc(Cl)cc2)c2noc(=O)n21 | – | 10 | 220 | 10 | Decrease (Cavia porcellus [8]): 64% |
| COc1ccc([C@@H]2Sc3ccccc3N(CCN(C)C)C(=O)[C@@H]2OC(C)=O)cc1 [DILTIAZEM] | – | 88 | 790 | 94 | Change (Cavia porcellus [9]): -59%; EC50 (Cavia porcellus [10]): 9.33 nM; Change (Cavia porcellus [11]): 34%; Change (Cavia porcellus [12]): -25%; Selectivity (Cavia porcellus [13]): 2.04; EC50 (Cavia porcellus [14]): 1610 nM; EC50 (Cavia porcellus [15]): 21.9 nM; Decrease (Cavia porcellus [5]): 78%; Change (Cavia porcellus [16]): -51% |
| CCCCCCCCCO[C@@]1(c2ccc(Br)cc2)SC=C(C)n2c1noc2=O | 71 | 3 | 350 | 7 | – |
| CC1=CSC(OC(C)C)(c2ccc(Br)cc2)c2noc(=O)n21 (stereo unspecified) | – | 18 | 270 | 4 | Decrease (Cavia porcellus [17]): 58% |
| CCCCOC1(c2ccc(Cl)cc2)SC=C(C)n2c1noc2=O (stereo unspecified) | 62 | 9 | 1850 | 9 | – |
| CCCOC1(c2ccc(Cl)cc2)SC=C(C)n2c1noc2=O (stereo unspecified) | 73 | 20 | 890 | 7 | – |
| CCCCCCCC/C=C\CCCCCCCCO[C@@]1(c2ccc(Cl)cc2)SC=C(C)n2c1noc2=O | 70 | 7 | 870 | 14 | – |
